# Tests used:
# [1] = test system: LC3B; assay: Liver protein analysis in mice: LC3B II/I ratio; format: in vivo; settings: Table 30; mouse liver 24 h; oligonucleotide 5 mg/kg (or PBS); Treatment AZD8055 5 mg/kg at 0, 12, 22 h
# Procedure: The following experiments were performed to determine if the effects of autophagy modulators on antisense activity in vitro can be observed in vivo. Groups of 3-4 8-week-old male C57bl/6J mice were administered 5 mg/kg control oligonucleotide 141923, or 5 mg/kg antisense oligonucleotide 399462. Following administration of modified oligonucleotide, mice were administered 1% DMSO or 5 mg/kg AZD8055 in 1% DMSO at three time points over 24 hours: at the time of administration of the modified oligonucleotide, and 12 and 22 hours after administration of the modified oligonucleotide. A group of control mice was administered PBS at time 0 and 1% DMSO at 0, 12, and 22 hours. Mice were sacrificed at 24 hours after administration of the modified oligonucleotide and tissues were collected for analysis.
# Autophagy activation was confirmed in livers by determining suppression of mTOR kinase activity (pS6/S6 levels), determining an increased LC3B II/I ratio (a marker for the formation of autophagosomes), and determining p62 degradation (related to the clearance of autophagosomes). Protein analysis was carried out on liver tissue using standard procedures. All proteins were normalized to α-tubulin. Phospho-S6 Ribosomal Protein (Ser240/244) (2215S), and S6 Ribosomal Protein (2217S) antibodies were obtained from Cell Signaling Technology. The antibody against LC3B (ab48394) was purchased from Abcam. […]
# [2] = test system: Malat-1; assay: Malat-1 RNA by RT-qPCR in A431 cells; format: cell-based, human; settings: MOE gapmer
# Procedure: RT-qPCR analysis was performed to detect RNA levels of Malat-1 using primer probe set RTS2736. Results were normalized to cyclophilin A levels (measured using HTS3936). […] Each table below represents results from an individual assay.
# [3] = test system: Malat-1; assay: Malat-1 RNA by RT-qPCR in MHT cells; autophagy modulator, then oligonucleotide by free uptake; format: cell-based, mouse
# Procedure: MHT cells (a mouse hepatocellular carcinoma cell line) were plated at 20,000 cells/well and treated with DMSO (control) or an autophagy modulator for 24 hours at the concentrations indicated in Table 2 below. 3-MA, BafA1, AZD8055, and leupeptin are […]. […] Fourteen hours after the addition of autophagy modulators, 10 μM of a modified control oligonucleotide or of a modified antisense oligonucleotide was added by free uptake for ten hours. The modified oligonucleotides, shown in Table 1 below, are 3-10-3 cEt gapmers in which every internucleoside linkage is a phosphorothioate internucleoside linkage. The three 5′-terminal nucleosides and the three 3′-terminal nucleosides of each oligonucleotide each comprise a cEt modified sugar moiety. The remaining ten nucleosides of each oligonucleotide each comprise an unmodified, 2′-deoxy sugar moiety.
# Using the primer probe sets described in Table 3 below, RT-qPCR analysis was performed to detect RNA levels of Malat-1, shown in Table 4 and markers of autophagy, (Rab7, LAMP2, Atg7, ULK1, ULK2, Atg5, Beclin, and c-Jun), shown in Table 5. Results were normalized to cyclophilin A levels. To control for global effects of autophagy modulators on gene expression, Malat-1 RNA levels after treatment with an antisense oligonucleotide and an autophagy modulator were normalized to Malat-1 RNA levels in cells treated with control Compound No. 549148 and the same autophagy modulator.
# MHT cells were plated at 20,000 cells/well and treated with DMSO (control) or an autophagy modulator for 24 hours, at the concentrations indicated Table 7 below. Fourteen hours after the addition of autophagy modulator, control or antisense oligonucleotides (see Table 6) were added at 1 μM, 2.5 μM, 5 μM, or 10 μM by free uptake for ten hours. The modified oligonucleotides, shown in Table 6 below, are 5-10-5 MOE gapmers in which every internucleoside linkage is a phosphorothioate internucleoside linkage. The five 5′-terminal nucleosides and the five 3′-terminal nucleosides of each oligonucleotide each comprise a 2′-MOE modified sugar moiety. The remaining ten nucleosides of each oligonucleotide each comprise an unmodified, 2′-deoxy sugar moiety.
# RT-qPCR analysis was performed to detect RNA levels of Malat-1 using primer probe set 15877 (described in Example 1). In order to control for global effects of autophagy modulators on gene expression, Malat-1 RNA levels after treatment with an antisense oligonucleotide and an autophagy modulator were normalized to Malat-1 RNA levels in cells treated with control Compound No. 141923 and the same autophagy modulator. Each table below represents results from an individual assay.
smiles,measurement,setting,value
COc1ccc(-c2ccc3c(N4CCOC[C@@H]4C)nc(N4CCOC[C@@H]4C)nc3n2)cc1CO [AZD8055],LC3B II/I ratio,[1],2.3
same,effect of autophagy modulator on modified oligonucleotide activity (in words),[2],significantly enhanced modified oligonucleotide activity
same,effect of autophagy modulator on modified oligonucleotide activity (in words),"[3]; MOE gapmer 399462, relative to DMSO",significantly enhanced modified oligonucleotide activity
same,effect of autophagy modulator on antisense activity (in words),"[3]; cEt gapmer 556089, relative to DMSO",significantly enhanced antisense activity

# Source: patent US20210130826A1, “METHODS OF MODULATING ANTISENSE ACTIVITY” (IONIS PHARMACEUTICALS, INC., priority 2018, published 2021)
